≈ marks a conversion by molar mass, not a printed value.
Columns and labels:
Assay type in all cases: functional
Conditions in all cases: read-out: ED50 (the source's name)
HT-29 = assay: Cytotoxicity against human HT-29 cells by MTT assay
A549 = assay: Cytotoxicity against human A549 cells by MTT assay
KB = assay: Cytotoxicity against human KB cells by MTT assay
P388 = assay: Cytotoxicity against mouse P388 cells by MTT assay

SMILES	EC50 (HT-29) [µg/mL]	EC50 (A549) [µg/mL]	EC50 (KB) [µg/mL]	EC50 (P388) [µg/mL]
C=C1[C@@H]2C[C@@]3(OC(C)=O)[C@@]4(C)[C@@H](OC(C)=O)CC=C(C)[C@@H]4[C@@]3(O)[C@]3(O2)[C@@H](C)C(=O)O[C@H]3[C@H]1Cl [EXCAVATOLIDE A]	> 50	21.9 (≈ 45.5 µM)	2.5 (≈ 5.2 µM)	> 50
CCCC(=O)O[C@H]1C/C(C)=C\[C@@H]2OC(=O)[C@@]3(C)O[C@]23[C@]2(OC(C)=O)[C@H]3[C@@H](C)[C@@H](O)C[C@H](OC(C)=O)[C@]3(C)[C@]12OC(C)=O [EXCAVATOLIDE B]	> 50	> 50	> 50	> 50
CC(=O)O[C@H]1C[C@H](O)[C@H](C)[C@H]2[C@@]1(C)[C@]1(OC(C)=O)CC/C(C)=C\[C@@H]3OC(=O)[C@@]4(C)O[C@]34[C@]21O [EXCAVATOLIDE E]	1.6 (≈ 3.44 µM)	1.2 (≈ 2.58 µM)	0.8 (≈ 1.72 µM)	1.6 (≈ 3.44 µM)
CC(=O)O[C@H]1C[C@H](O)[C@H](C)[C@H]2[C@@]1(C)[C@]1(O)[C@@H](OC(C)=O)C/C(C)=C\[C@@H]3OC(=O)[C@@]4(C)O[C@]34[C@]21OC(C)=O [EXCAVATOLIDE D]	1.3 (≈ 2.49 µM)	> 50	4.2 (≈ 8.04 µM)	1.8 (≈ 3.44 µM)
CC(=O)O[C@H]1C[C@H](OC(C)=O)[C@@]2(C)[C@H]([C@H]1C)[C@]1(O)[C@@]2(OC(C)=O)CC/C(C)=C\[C@@H]2OC(=O)[C@@]3(C)O[C@@]213	4.4 (≈ 8.69 µM)	37.2 (≈ 73.4 µM)	> 50	5.8 (≈ 11.5 µM)
C=C1[C@H]2O[C@H]2[C@@]2(O)[C@@]3(C)[C@H]4O[C@H]4[C@H](OC(C)=O)[C@H](C)[C@@H]3[C@@]2(OC(C)=O)[C@]2(O)[C@@H](C)C(=O)O[C@H]2[C@H]1Cl [BRIANOLIDE]	> 50	> 50	> 50	> 50
CC(=O)O[C@H]1C[C@H](O)[C@H](C)[C@H]2[C@@]1(C)[C@]1(OC(C)=O)[C@@H](OC(C)=O)C/C(C)=C\[C@@H]3OC(=O)[C@@]4(C)O[C@]34[C@]21OC(C)=O [EXCAVATOLIDE C]	1.9 (≈ 3.37 µM)	1.9 (≈ 3.37 µM)	1.9 (≈ 3.37 µM)	0.3 (≈ 0.531 µM)

Reference: ChEMBL document CHEMBL1150878, “Novel cytotoxic diterpenes, excavatolides A-E, isolated from the Formosan gorgonian Briareum excavatum” (1998)
